Measured values published in patent US9029359B2, “Heteroaryl Btk inhibitors” (Biogen Idec MA, Inc., priority 2009, dated 2015).

Molecular target: T1, BTK (Homo sapiens, UniProt Q06187)
T1 construct: purchased Upstate 14-552
Assay: In vitro BTK kinase assay: BTK-POLYGAT-LS ASSAY
Format: biochemical
Conditions: ATP 10 uM
Protocol: In vitro BTK kinase assay: BTK-POLYGAT-LS ASSAY. The purpose of the BTK in vitro assay is to determine compound potency against BTK through the measurement of IC50. […] A 24 μL aliquot of a ATP/peptide master mix (final concentration; ATP 10 μM, polyGAT 100 nM) in kinase buffer (10 mM Tris-HCl pH 7.5, 10 mM MgCl2, 200 μM Na3VO4, 5 mM DTT, 0.01% Triton X-100, and 0.2 mg/ml Casein) is added to each well. […] The assay is incubated for 30 minutes before being stopped with 28 μL of a 50 mM EDTA solution. […] The plate is covered and incubated for 45 minutes at room temperature. Time resolved fluorescence (TRF) on Molecular Devices M5 (332 nm excitation; 488 nm emission; 518 nm fluorescein emission) is measured.

T1 sequence (Q06187 whole entry): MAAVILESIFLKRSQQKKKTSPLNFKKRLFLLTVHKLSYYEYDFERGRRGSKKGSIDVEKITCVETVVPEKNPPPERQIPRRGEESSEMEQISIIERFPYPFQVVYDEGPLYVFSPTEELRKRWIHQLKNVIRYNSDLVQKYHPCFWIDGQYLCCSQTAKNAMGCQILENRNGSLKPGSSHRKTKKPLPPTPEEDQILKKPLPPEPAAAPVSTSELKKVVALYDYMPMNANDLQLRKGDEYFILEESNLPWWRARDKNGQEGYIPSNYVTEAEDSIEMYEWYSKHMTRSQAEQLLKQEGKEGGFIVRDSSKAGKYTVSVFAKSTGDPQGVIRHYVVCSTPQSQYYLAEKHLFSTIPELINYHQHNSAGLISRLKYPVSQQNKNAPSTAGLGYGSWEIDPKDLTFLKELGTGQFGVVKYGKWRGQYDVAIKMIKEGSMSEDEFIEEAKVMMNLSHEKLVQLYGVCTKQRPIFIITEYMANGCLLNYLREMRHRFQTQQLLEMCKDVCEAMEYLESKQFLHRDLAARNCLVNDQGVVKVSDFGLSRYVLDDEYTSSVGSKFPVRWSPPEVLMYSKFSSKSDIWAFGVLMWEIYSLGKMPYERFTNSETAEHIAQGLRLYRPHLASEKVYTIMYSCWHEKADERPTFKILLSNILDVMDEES

Compound	IC50
O=C(CNc1ccccc1)N(CC1CCCCC1)C1CCCN(c2ncnc3[nH]ccc23)C1 (stereo not drawn) [Example 88, (N-(1-(7H-pyrrolo[2,3-d]pyrimidin-4-yl)piperidin-3-yl)-N-(cyclohexylmethyl)-2-(phenylamino)acetamide)]	1 to 10 µM
O=C(CNC(=O)c1ccccc1Cl)NC1CCCN(c2ncnc3[nH]ccc23)C1 (stereo not drawn) [Example 92, (N-(2-(1-(7H-pyrrolo[2,3-d]pyrimidin-4-yl)piperidin-3-ylamino)-2-oxoethyl)-2-chlorobenzamide)]	1 to 10 µM
O=C(CNC(=O)c1cccc(Cl)c1)NC1CCCN(c2ncnc3[nH]ccc23)C1 (stereo not drawn) [Example 93, (N-(2-(1-(7H-pyrrolo[2,3-d]pyrimidin-4-yl)piperidin-3-ylamino)-2-oxoethyl)-3-chlorobenzamide)]	1 to 10 µM
O=C(CNC(=O)c1ccc(Cl)cc1)NC1CCCN(c2ncnc3[nH]ccc23)C1 (stereo not drawn) [Example 94, (N-(2-(1-(7H-pyrrolo[2,3-d]pyrimidin-4-yl)piperidin-3-ylamino)-2-oxoethyl)-4-chlorobenzamide)]	1 to 10 µM
O=C(Cc1ccccc1)NCC(=O)NC1CCCN(c2ncnc3[nH]ccc23)C1 (stereo not drawn) [Example 96, (N-(1-(7H-pyrrolo[2,3-d]pyrimidin-4-yl)piperidin-3-yl)-2-(2-phenylacetamido)acetamide)]	1 to 10 µM
O=C(CNC(=O)C1CCCCC1)NC1CCCN(c2ncnc3[nH]ccc23)C1 (stereo not drawn) [Example 99, (N-(2-(1-(7H-pyrrolo[2,3-d]pyrimidin-4-yl)piperidin-3-ylamino)-2-oxoethyl)cyclohexanecarboxamide)]	1 to 10 µM
C[C@H](Nc1ccccc1)C(=O)NC1CCCN(c2ncnc3[nH]ccc23)C1 (stereo partly drawn) [Example 102, (2S)—N-(1-(7H-pyrrolo[2,3-d]pyrimidin-4-yl)piperidin-3-yl)-2-(phenylamino)propanamide]	> 10 µM
O=C(N[C@@H]1CCCN(c2ncnc3[nH]ccc23)C1)[C@@H](Cc1ccccc1)Nc1ccccc1 [Example 104, (R)—N—((R)-1-(7H-pyrrolo[2,3-d]pyrimidin-4-yl)piperidin-3-yl)-3-phenyl-2-(phenylamino)propanamide]	1 to 10 µM
CC(C)C[C@@H](Nc1ccccc1)C(=O)N[C@@H]1CCCN(c2ncnc3[nH]ccc23)C1 [Example 105, (R)—N—((R)-1-(7H-pyrrolo[2,3-d]pyrimidin-4-yl)piperidin-3-yl)-4-methyl-2-(phenylamino)pentanamide]	1 to 10 µM
O=C(N[C@@H]1CCCN(c2ncnc3[nH]ccc23)C1)[C@H](Nc1ccccc1)c1ccccc1 [Example 106, (R)—N—((R)-1-(7H-pyrrolo[2,3-d]pyrimidin-4-yl)piperidin-3-yl)-2-phenyl-2-(phenylamino)acetamide]	> 10 µM
CC(C)(C)[C@@H](Nc1ccccc1)C(=O)N[C@@H]1CCCN(c2ncnc3[nH]ccc23)C1 [Example 108, (R)—N—((R)-1-(7H-pyrrolo[2,3-d]pyrimidin-4-yl)piperidin-3-yl)-3,3-dimethyl-2-(phenylamino)butanamide]	0.1 to 0.999 µM
O=C(N[C@@H]1CCCN(c2ncnc3[nH]ccc23)C1)[C@H](Nc1ccccc1)C1CCCCC1 [Example 109, (R)—N—((R)-1-(7H-pyrrolo[2,3-d]pyrimidin-4-yl)piperidin-3-yl)-2-cyclohexyl-2-(phenylamino)acetamide]	1 to 10 µM
C[C@@H](O)[C@@H](Nc1ccccc1)C(=O)N[C@@H]1CCCN(c2ncnc3[nH]ccc23)C1 [Example 110, (2R,3R)—N—((R)-1-(7H-pyrrolo[2,3-d]pyrimidin-4-yl)piperidin-3-yl)-3-hydroxy-2-(phenylamino)butanamide]	0.1 to 0.999 µM
C[C@H](O)[C@@H](Nc1ccccc1)C(=O)N[C@@H]1CCCN(c2ncnc3[nH]ccc23)C1 [Example 111, (2R,3S)—N—((R)-1-(7H-pyrrolo[2,3-d]pyrimidin-4-yl)piperidin-3-yl)-3-hydroxy-2-(phenylamino)butanamide]	0.1 to 0.999 µM
CC[C@H](C)[C@@H](Nc1ccccc1)C(=O)N[C@@H]1CCCN(c2ncnc3[nH]ccc23)C1 [Example 115, (2R,3S)—N—((R)-1-(7H-pyrrolo[2,3-d]pyrimidin-4-yl)piperidin-3-yl)-3-methyl-2-(phenylamino)pentanamide]	0.1 to 0.999 µM
CS(=O)(=O)CC[C@@H](Nc1ccccc1)C(=O)N[C@@H]1CCCN(c2ncnc3[nH]ccc23)C1 [Example 116, (R)—N—((R)-1-(7H-pyrrolo[2,3-d]pyrimidin-4-yl)piperidin-3-yl)-4-(methylsulfonyl)-2-(phenylamino)butanamide]	1 to 10 µM
CC[C@@H](C)[C@@H](Nc1ccccc1)C(=O)N[C@@H]1CCCN(c2ncnc3[nH]ccc23)C1 [Example 117, (2R,3R)—N—((R)-1-(7H-pyrrolo[2,3-d]pyrimidin-4-yl)piperidin-3-yl)-3-methyl-2-(phenylamino)pentanamide]	0.1 to 0.999 µM

The next lines start with the values.

IC50	Compound
0.1 to 0.999 µM	CC(C)(C)c1ccc(C(=O)NCC(=O)NC2CCCN(c3ncnc4[nH]ccc34)C2)cc1 (stereo not drawn) [Example 95, (N-(2-(1-(7H-pyrrolo[2,3-d]pyrimidin-4-yl)piperidin-3-ylamino)-2-oxoethyl)-4-tert-butylbenzamide)]
0.1 to 0.999 µM	O=C(CNC(=O)c1cccc2ccccc12)NC1CCCN(c2ncnc3[nH]ccc23)C1 (stereo not drawn) [Example 97, (N-(2-(1-(7H-pyrrolo[2,3-d]pyrimidin-4-yl)piperidin-3-ylamino)-2-oxoethyl)-1-naphthamide)]
0.1 to 0.999 µM	O=C(CNC(=O)c1ccc2ccccc2c1)NC1CCCN(c2ncnc3[nH]ccc23)C1 (stereo not drawn) [Example 98]
0.1 to 0.999 µM	C[C@@H](Nc1ccccc1)C(=O)N[C@@H]1CCCN(c2ncnc3[nH]ccc23)C1 [Example 100, (R)—N—((R)-1-(7H-pyrrolo[2,3-d]pyrimidin-4-yl)piperidin-3-yl)-2-(phenylamino)propanamide]
0.1 to 0.999 µM	C[C@@H](Nc1ccccc1)C(=O)NC1CCCN(c2ncnc3[nH]ccc23)C1 (stereo partly drawn) [Example 101, (2R)—N-(1-(7H-pyrrolo[2,3-d]pyrimidin-4-yl)piperidin-3-yl)-2-(phenylamino)propanamide]
0.1 to 0.999 µM	CC(C)[C@@H](Nc1ccccc1)C(=O)N[C@@H]1CCCN(c2ncnc3[nH]ccc23)C1 [Example 103, (R)—N—((R)-1-(7H-pyrrolo[2,3-d]pyrimidin-4-yl)piperidin-3-yl)-3-methyl-2-(phenylamino)butanamide]
< 0.1 µM	O=C(N[C@@H]1CCCN(c2ncnc3[nH]ccc23)C1)[C@H](Nc1ccccc1)C1CC1 [Example 107, (R)—N—((R)-1-(7H-pyrrolo[2,3-d]pyrimidin-4-yl)piperidin-3-yl)-2-cyclopropyl-2-(phenylamino)acetamide]
< 0.1 µM	CC(C)[C@@H](Nc1cccc(Cl)c1)C(=O)N[C@@H]1CCCN(c2ncnc3[nH]ccc23)C1 [Example 112, (R)—N—((R)-1-(7H-pyrrolo[2,3-d]pyrimidin-4-yl)piperidin-3-yl)-2-(3-chlorophenylamino)-3-methylbutanamide]
< 0.1 µM	CC[C@@H](Nc1ccccc1)C(=O)N[C@@H]1CCCN(c2ncnc3[nH]ccc23)C1 [Example 114, (R)—N—((R)-1-(7H-pyrrolo[2,3-d]pyrimidin-4-yl)piperidin-3-yl)-2-(phenylamino)butanamide]
< 0.1 µM	O=C(N[C@@H]1CCCN(c2ncnc3[nH]ccc23)C1)[C@H](Nc1cccc(Cl)c1)C1CC1 [Example 119, (R)—N—((R)-1-(7H-pyrrolo[2,3-d]pyrimidin-4-yl)piperidin-3-yl)-2-(3-chlorophenylamino)-2-cyclopropylacetamide]
